A word on the inhibition: it is the drop in the measured response relative to a control, in per cent.

Activity calls are given as the source filed them. No rule for the calls is given here.

This passage reports inhibition results from PubChem BioAssay AID1288 (Columbia University Molecular Screening Center, 2008).

A short description of this test: inhibitors of TNFa-induced E-selectin expression, confirmation, imaging, retest plus dose response, cell count (AID 1288).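 Also: 0% = stimulated vehicle wells and 100% = unstimulated vehicle wells.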 The note with it: human endothelial cells, TNFa-induced E-selectin, imaging; at 2 µM; active compounds read high.
As for `CS(=O)(=O)c1ccc(Cl)c(NC(=O)c2ccc3ccccc3c2)c1`, the inhibition is 4.97% (inactive).
The value for `Cc1nn(-c2ccccc2)c2sc(C(=O)O)cc12` was 2.23% (inactive).
As for `CN(C)S(=O)(=O)c1cc(NC(=O)CSc2nn(-c3ccc(Cl)cc3)c(=S)s2)ccc1Cl`, the inhibition is -2.75% (inactive).
Under `CCOc1cc(-c2nn3cnnc3s2)cc(OCC)c1OCC` stands 4.31% (inactive).
Under `O=C(Nc1nnc(SCc2ccccc2)s1)c1cccc([N+](=O)[O-])c1` stands 6.01% (inactive); under `C=CCc1cccc(/C=N/NC(=O)CCCNc2ccc(C)cc2)c1O`, 11.2% (inactive); under `COc1ccc(S(=O)(=O)N(CC(N)=O)C2CCCCC2)cc1Cl`, 5.95% (inactive).
Under `COc1ccc(C(=O)C2(C)N(O)C(C)C(c3cccs3)=[N+]2[O-])cc1` (stereo not drawn) stands 9.94% (inactive); under `Cn1c(O)c(C(=N)COc2cccc(Cl)c2)c(=O)n(C)c1=O`, 18.8% (inactive); under `C=CCNC(=O)/C=C/c1cccs1`, -0.12% (inactive).
Regarding `CCCNc1ncnc2sc(C)c(C)c12`, the inhibition is 12.7% (inactive).
The value for `COc1cccc(-n2c(SC3CCOC3=O)nc3ccccc3c2=O)c1` (stereo not drawn) was 27.9% (inactive); that for `CNC(=S)N=Nc1c(O)[nH]c2ccc(C(C)C)cc12` was 9.53% (inactive); that for `CCCSc1nc(C)c(-c2csc(C(C#N)=C3CCCC3)n2)cc1C#N` was 8.04% (inactive).
The value for `O=C(O)CSc1nnc(-c2ccncc2)n1CCc1ccccc1` was 28.9% (inactive); that for `COc1ccc(C)cc1S(=O)(=O)N(C)CC(=O)N1CCCCC1` was -0.62% (inactive).
The value for `COc1ccc(OC)c2sc(NC(=O)CCS(=O)(=O)c3ccccc3)nc12` was 5.59% (inactive); that for `Cc1ccc(S(=O)(=O)N2CCN(C(=O)C3COc4ccccc4O3)CC2)cc1C` (stereo not drawn) was -0.52% (inactive); that for `N#Cc1cccc(-n2c(-c3ccccc3)nnc2-c2ccccc2)c1C#N` was 4.7% (inactive).
Turning to `COc1ccc2cc(CN(CCO)C(=O)c3ccccc3F)c(=O)[nH]c2c1`, the inhibition is 12.6% (inactive).
The value for `C=CCn1c(SCC(=O)NCc2ccccc2)nnc1-c1ccccc1O` was -0.67% (inactive).
Under `CCn1c(SCC(=O)Nc2ccccc2OC)nnc1-c1cnccn1` stands 6.59% (inactive); under `COc1ccc(N2C(=O)CCC2(C#N)c2ccc(Br)cc2)cc1` (stereo not drawn), -2.45% (inactive); under `CC1CN(C(=O)/C(C#N)=C2\N=C(NC(=O)c3ccccc3Cl)c3ccccc32)CC(C)O1` (stereo not drawn), -0.23% (inactive).
Under `Cc1ccc(C)c(N(CC(=O)NCCSCc2ccco2)S(C)(=O)=O)c1` stands 6.59% (inactive).
For `CCOC(=O)N1CCC(N(CCOC)C(=O)Nc2ccc(Cl)cc2)CC1`, the inhibition is 2.12% (inactive).
Under `c1ccc(-n2c(-c3ccncc3)nnc2N2CCOCC2)cc1` stands 5.7% (inactive); under `CC(CCc1ccccc1)NC(=O)/C=C/c1ccc(Cl)cc1` (stereo not drawn), 14.9% (inactive).
On to `CCOC(=O)N1CCC(N2CCN(S(=O)(=O)c3ccc(NC(C)=O)cc3)CC2)CC1`, for which the inhibition is 5.13% (inactive).
Under `CC(Sc1nnc2c(n1)C1CCC2(C)C1(C)C)C(=O)Nc1ccccc1` (stereo not drawn) stands 9.66% (inactive); under `C=CCN(CC=C)C(=O)Nc1cc(Cl)ccc1OC`, 15.5% (inactive).
The value for `Cc1ccc(/C([O-])=C(/C(=S)NCc2ccccc2)[n+]2cccc(CO)c2)cc1[N+](=O)[O-]` was -5.81% (inactive); that for `Cn1c(NCCN2CCCCC2)cc(=O)n(C)c1=O` was 22.7% (inactive).
Under `COc1ccc(-c2nc(CNS(=O)(=O)c3ccc(OC)c(OC)c3)cs2)cc1` stands 8% (inactive); under `CC(C)CC(=O)n1sc(NC(=O)c2ccccc2)nc1=O`, -4.08% (inactive).
`C/C(=N\NC(=O)CC1N=C(Cc2ccccc2)NNC1=O)c1ccc(C)cc1` (stereo not drawn): the inhibition is 3.58% (inactive).
On to `O=C(Cc1cccs1)NNC(=S)NC(=O)c1ccc(F)c(F)c1`, for which the inhibition is 6.92% (inactive).
The value for `O=C(COc1ccc([N+](=O)[O-])cc1Cl)NCCc1ccccc1` was -2.48% (inactive).
Under `COc1ccc(Br)cc1CN(C)CC(=O)Nc1cc(Cl)ccc1Cl` stands -1.79% (inactive); under `COc1ccc(NC(=O)c2ccc(CNc3c(NC4CCCCC4)c(=O)c3=O)cc2)cc1OC`, 3.32% (inactive); under `CCOC(=O)C1CCCN(c2ncnc3c2cnn3-c2ccc(Cl)cc2)C1` (stereo not drawn), 38.5% (inactive).
Under `CC1=Nc2ccccc2/C1=C/c1c(N)n2c(S(=O)(=O)CC(C)C)nsc2nc1=O` stands 2.29% (inactive); under `COCCCNC(=O)CN1C(=O)c2ccccc2C1=O`, 5.47% (inactive); under `COc1ccc(N/C=C/C(=O)c2ccc(C)cc2)c([N+](=O)[O-])c1`, 17.3% (inactive).
With `Cc1ccc(N2CCN(/N=C/c3cccs3)CC2)cc1`, the inhibition was 1.13% (inactive).
The value for `CC(=O)N[C@@H](Cc1c[nH]c2ccccc12)C(=O)OCC(=O)Nc1ccc(Cl)c(S(=O)(=O)N(C)C)c1` was 7.98% (inactive).
Under `CN(C)S(=O)(=O)c1ccc(NS(=O)(=O)/C=C/c2ccccc2)cc1` stands 0.79% (inactive).
Under `CCN1C(=O)/C(=C\c2cn(-c3ccccc3)nc2-c2cccnc2)SC1=S` stands 28% (inactive); under `Cc1nc2ccc(NC(=O)c3cc(S(=O)(=O)N4CCOCC4)ccc3C)cc2s1`, 16% (inactive); under `CCOC(=O)c1c(NC(=O)CSc2nnc(C)c(=O)[nH]2)sc(C)c1C`, 8.64% (inactive).
`Cc1cc(NC(=O)CSc2n[nH]c(N)n2)no1`: the inhibition is 14.1% (inactive).
Under `Oc1ccc(-c2csc(-c3ccccc3)n2)cc1O` stands 35.9% (inactive); under `O=C(CCn1c2c(c3ccccc31)CCCC2)NNC(=O)c1ccccc1[N+](=O)[O-]`, 2% (inactive).
For `Nc1ccc2c(c1)N1CCN=C1S2`, the inhibition is 11.1% (inactive).
Turning to `COc1ccc(-c2nc3cnccn3c2NC(C)(C)CC(C)(C)C)cc1O`, the inhibition is 6.02% (inactive).
The value for `O=S(=O)(c1ccccc1)N1CCN(CC(O)COc2ccc3c(c2)CCC3)CC1` (stereo not drawn) was 4.13% (inactive); that for `CCN(CC)CCNS(=O)(=O)c1ccc(/C=C/C(=O)O)cc1` was 13.4% (inactive).
Under `CCn1c(SCC(=O)NCc2ccco2)nnc1-c1ccc(N)cc1` stands 10.3% (inactive).
As to `CCCCCC1NC(=O)NC1CCCCCC(=O)O` (stereo not drawn), the inhibition was 0.1% (inactive).
Under `CCS(=O)(=O)Nc1ccc(-c2cc(-c3ccccc3)c3cc(C)ccc3n2)cc1` stands 0.49% (inactive); under `O=c1cc(O)n(-c2ccc(F)cc2)c(=S)[nH]1`, -0.2% (inactive).
With `CCN(CC)Cc1cc(C(C)=O)ccc1O`, the inhibition was 3.73% (inactive).
Under `Cc1cc(SCc2cc(=O)[nH]c3ccccc23)nc2ccccc12` stands -9.63% (inactive).
